Experiments:
[1] = system: Alopecurus myosuroides; test: Post-emergence herbicidal effect; assay type: in vivo; settings: 320 g/ha, assessed visually after about 3 weeks vs untreated controls
Procedure, shortened: (§1)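 Herbicidal effect was rated visually roughly 3 weeks after foliar treatment, as % versus untreated plants, with 0% meaning the same as controls and 100% meaning dead. Plants were treated at the one-leaf stage in the greenhouse with aqueous WP or EC sprays at 600–800 L/ha containing 0.2% wetter.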

[2] = system: Viola tricolor; test: Post-emergence herbicidal effect; assay type: in vivo; settings: assessed visually after about 3 weeks vs untreated controls
Procedure, shortened: as §1

[3] = system: Alopecurus myosuroides; test: Pre-emergence herbicidal effect; assay type: in vivo; settings: scored visually after 3 weeks
Procedure, shortened: (§2)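 Pre-emergence soil-surface application of compound as WP or EC in water (600 to 800 L/ha, 0.2% wetting agent) to freshly sown, soil-covered seeds in sandy loam. After 3 weeks under greenhouse conditions, percent activity rated by eye versus untreated plants, from 0% (no effect) to 100% (death).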

[4] = system: Abutilon theophrasti; test: Pre-emergence herbicidal effect; assay type: in vivo; settings: Dosage 320 g/ha, scored visually after 3 weeks
Procedure, shortened: as §2

[5] = system: Viola tricolor; test: Pre-emergence herbicidal effect; assay type: in vivo; settings: scored visually after 3 weeks
Procedure, shortened: as §2

[6] = system: Polygonum convolvulus; test: Pre-emergence herbicidal effect; assay type: in vivo; settings: scored visually after 3 weeks
Procedure, shortened: as §2

[7] = system: Stellaria media; test: Pre-emergence herbicidal effect; assay type: in vivo; settings: scored visually after 3 weeks
Procedure, shortened: as §2

[8] = system: Setaria viridis; test: Pre-emergence herbicidal effect; assay type: in vivo; settings: scored visually after 3 weeks
Procedure, shortened: as §2

[9] = system: Veronica persica; test: Pre-emergence herbicidal effect; assay type: in vivo; settings: scored visually after 3 weeks
Procedure, shortened: as §2

[10] = system: Lolium multiflorum; test: Pre-emergence herbicidal effect; assay type: in vivo; settings: scored visually after 3 weeks
Procedure, shortened: as §2

[11] = system: Amaranthus retroflexus; test: Pre-emergence herbicidal effect; assay type: in vivo; settings: scored visually after 3 weeks
Procedure, shortened: as §2

[12] = system: Matricaria inodora; test: Pre-emergence herbicidal effect; assay type: in vivo; settings: scored visually after 3 weeks
Procedure, shortened: as §2

[13] = system: Abutilon theophrasti; test: Post-emergence herbicidal effect; assay type: in vivo; settings: assessed visually after about 3 weeks vs untreated controls
Procedure, shortened: as §1

[14] = system: Stellaria media; test: Post-emergence herbicidal effect; assay type: in vivo; settings: assessed visually after about 3 weeks vs untreated controls
Procedure, shortened: as §1

[15] = system: Veronica persica; test: Post-emergence herbicidal effect; assay type: in vivo; settings: assessed visually after about 3 weeks vs untreated controls
Procedure, shortened: as §1

[16] = system: Echinochloa crus-galli; test: Post-emergence herbicidal effect; assay type: in vivo; settings: 320 g/ha, assessed visually after about 3 weeks vs untreated controls
Procedure, shortened: as §1

[17] = system: Amaranthus retroflexus; test: Post-emergence herbicidal effect; assay type: in vivo; settings: assessed visually after about 3 weeks vs untreated controls
Procedure, shortened: as §1

[18] = logP (HCOOH); assay type: physicochemical; settings: HCOOH
Source text: Table 2 (physicochemical characterization of selected synthesis examples)

[19] = system: Echinochloa crus-galli; test: Pre-emergence herbicidal effect; assay type: in vivo; settings: scored visually after 3 weeks
Procedure, shortened: as §2

[20] = system: Ipomoea purpurea; test: Post-emergence herbicidal effect; assay type: in vivo; settings: assessed visually after about 3 weeks vs untreated controls
Procedure, shortened: as §1

[21] = system: Polygonum convolvulus; test: Post-emergence herbicidal effect; assay type: in vivo; settings: assessed visually after about 3 weeks vs untreated controls
Procedure, shortened: as §1

[22] = system: Lolium multiflorum; test: Post-emergence herbicidal effect; assay type: in vivo; settings: assessed visually after about 3 weeks vs untreated controls
Procedure, shortened: as §1

[23] = system: Matricaria inodora; test: Post-emergence herbicidal effect; assay type: in vivo; settings: assessed visually after about 3 weeks vs untreated controls
Procedure, shortened: as §1

[24] = system: Avena fatua; test: Pre-emergence herbicidal effect; assay type: in vivo; settings: Dosage 320 g/ha, scored visually after 3 weeks
Procedure, shortened: as §2

[25] = system: Setaria viridis; test: Post-emergence herbicidal effect; assay type: in vivo; settings: 320 g/ha, assessed visually after about 3 weeks vs untreated controls
Procedure, shortened: as §1

Row | Compound | post-emergence efficacy ALOMY [1] [%] | post-emergence efficacy VIOTR ([2]; 320 g/ha) [%] | ALOMY pre-emergence efficacy (herbicidal activity) ([3]; Dosage 320 g/ha) [%] | VIOTR pre-emergence efficacy (herbicidal activity) ([5]; Dosage 80 g/ha) [%] | VIOTR pre-emergence efficacy (herbicidal activity) ([5]; Dosage 320 g/ha) [%] | POLCO pre-emergence efficacy (herbicidal activity) ([6]; Dosage 320 g/ha) [%] | STEME pre-emergence efficacy (herbicidal activity) ([7]; Dosage 80 g/ha) [%] | STEME pre-emergence efficacy (herbicidal activity) ([7]; Dosage 320 g/ha) [%] | SETVI pre-emergence efficacy (herbicidal activity) ([8]; Dosage 320 g/ha) [%] | VERPE pre-emergence efficacy (herbicidal activity) ([9]; Dosage 80 g/ha) [%] | VERPE pre-emergence efficacy (herbicidal activity) ([9]; Dosage 320 g/ha) [%] | LOLMU pre-emergence efficacy (herbicidal activity) ([10]; Dosage 320 g/ha) [%] | AMARE pre-emergence efficacy (herbicidal activity) ([11]; Dosage 80 g/ha) [%] | AMARE pre-emergence efficacy (herbicidal activity) ([11]; Dosage 320 g/ha) [%] | MATIN pre-emergence efficacy (herbicidal activity) ([12]; Dosage 80 g/ha) [%] | MATIN pre-emergence efficacy (herbicidal activity) ([12]; Dosage 320 g/ha) [%] | post-emergence efficacy ABUTH ([13]; 320 g/ha) [%] | post-emergence efficacy STEME ([14]; 320 g/ha) [%] | post-emergence efficacy VERPE ([15]; 320 g/ha) [%] | post-emergence efficacy AMARE ([17]; 320 g/ha) [%] | other results
1 | Cc1cc2c(o1)CCCC2Nc1ncc(C(F)(F)F)c(N)n1 (racemic) [compound 28] | 100 | 90 | 90 | 90 | 100 | 100 | 100 | 100 | 100 | 100 | 100 | 100 | 100 | 100 | 90 | 100 | – | – | – | – | ABUTH pre-emergence efficacy (herbicidal activity) [4]: 80%
2 | CS(=O)(=O)c1cnc(NC2CCCc3ccsc32)nc1N (racemic) [compound 69] | 80 | 100 | 80 | 100 | 100 | 100 | 100 | 100 | 100 | 100 | 100 | 100 | 100 | 100 | 100 | 100 | 80 | 90 | 80 | 90 | post-emergence efficacy VIOTR ([2]; 80 g/ha): 80%; post-emergence efficacy ECHCG [16]: 80%; post-emergence efficacy AMARE ([17]; 80 g/ha): 20%; logP (HCOOH) [18]: solid; m.p.: 129.9° C.; logP (HCOOH): 1.86; 1H NMR (CDCl3, 400 MHZ, δ in ppm): ):; ABUTH pre-emergence efficacy (herbicidal activity) [4]: 100%; ECHCG pre-emergence efficacy (herbicidal activity) ([19]; Dosage 320 g/ha): 100%
3 | Cc1cc2c(s1)CCCC2Nc1ncc(SC(F)(F)F)c(C)n1 (racemic) [compound 80] | – | 100 | 70 | 90 | 100 | 100 | 100 | 100 | 100 | 100 | 100 | – | 100 | 100 | 70 | 90 | 90 | 100 | 100 | 100 | post-emergence efficacy PHBPU ([20]; 80 g/ha): 90%; post-emergence efficacy PHBPU ([20]; 320 g/ha): 100%; post-emergence efficacy ABUTH ([13]; 80 g/ha): 80%; post-emergence efficacy VIOTR ([2]; 80 g/ha): 100%; post-emergence efficacy POLCO ([21]; 320 g/ha): 60%; post-emergence efficacy STEME ([14]; 80 g/ha): 100%; post-emergence efficacy VERPE ([15]; 80 g/ha): 90%; post-emergence efficacy ECHCG [16]: 70%; post-emergence efficacy LOLMU ([22]; 80 g/ha): 70%; post-emergence efficacy LOLMU ([22]; 320 g/ha): 90%; post-emergence efficacy AMARE ([17]; 80 g/ha): 100%; post-emergence efficacy MATIN ([23]; 80 g/ha): 70%; post-emergence efficacy MATIN ([23]; 320 g/ha): 90%; AVEFA pre-emergence efficacy (herbicidal activity) [24]: 60%; POLCO pre-emergence efficacy (herbicidal activity) ([6]; Dosage 80 g/ha): 100%; SETVI pre-emergence efficacy (herbicidal activity) ([8]; Dosage 80 g/ha): 100%
4 | C/C(=N\O)c1cnc(NC2CCCc3sc(Cl)cc32)nc1C (racemic) [compound 260] | – | 90 | 90 | 100 | 100 | 100 | 100 | 100 | 100 | 100 | 100 | 100 | 100 | 100 | 100 | 100 | 90 | 100 | 100 | 90 | post-emergence efficacy PHBPU ([20]; 80 g/ha): 70%; post-emergence efficacy PHBPU ([20]; 320 g/ha): 90%; post-emergence efficacy ABUTH ([13]; 80 g/ha): 80%; post-emergence efficacy VIOTR ([2]; 80 g/ha): 70%; post-emergence efficacy POLCO ([21]; 80 g/ha): 60%; post-emergence efficacy POLCO ([21]; 320 g/ha): 60%; post-emergence efficacy STEME ([14]; 80 g/ha): 80%; post-emergence efficacy SETVI [25]: 100%; post-emergence efficacy ECHCG [16]: 100%; post-emergence efficacy LOLMU ([22]; 320 g/ha): 70%; post-emergence efficacy AMARE ([17]; 80 g/ha): 90%; post-emergence efficacy MATIN ([23]; 80 g/ha): 70%; post-emergence efficacy MATIN ([23]; 320 g/ha): 90%; ALOMY pre-emergence efficacy (herbicidal activity) ([3]; Dosage 80 g/ha): 70%; AVEFA pre-emergence efficacy (herbicidal activity) [24]: 90%; POLCO pre-emergence efficacy (herbicidal activity) ([6]; Dosage 80 g/ha): 80%; SETVI pre-emergence efficacy (herbicidal activity) ([8]; Dosage 80 g/ha): 50%; ECHCG pre-emergence efficacy (herbicidal activity) ([19]; Dosage 320 g/ha): 100%; LOLMU pre-emergence efficacy (herbicidal activity) ([10]; Dosage 80 g/ha): 50%
5 | Cc1cc2c(s1)CCCC2Nc1nc(N)c(-c2cncc(Cl)c2)c(C(F)F)n1 (racemic) [compound 300] | 70 | – | – | – | 100 | – | 80 | 100 | 70 | – | – | – | – | 100 | 80 | 90 | – | 90 | – | 90 | post-emergence efficacy PHBPU ([20]; 320 g/ha): 60%; post-emergence efficacy STEME ([14]; 80 g/ha): 60%
6 | Cc1cc2c(s1)CCCC2Nc1nc(N)c(C#N)c(C(C)F)n1 (racemic) [compound 320] | 80 | 100 | – | – | 100 | 100 | – | 100 | 100 | – | 100 | – | – | 100 | – | 100 | 80 | 60 | 100 | 60 | post-emergence efficacy SETVI [25]: 60%
7 | Cc1cc2c(s1)CCC[C@H]2Nc1ncc2c(n1)CCCS2(=O)=O [compound 44] | 90 | 80 | 100 | – | – | 100 | 100 | 100 | 100 | 100 | 100 | 100 | 100 | 100 | 100 | 100 | 90 | 100 | 100 | 100 | post-emergence efficacy PHBPU ([20]; 320 g/ha): 100%; post-emergence efficacy POLCO ([21]; 320 g/ha): 80%; post-emergence efficacy SETVI [25]: 100%; post-emergence efficacy ECHCG [16]: 100%; ALOMY pre-emergence efficacy (herbicidal activity) ([3]; Dosage 80 g/ha): 80%; ABUTH pre-emergence efficacy (herbicidal activity) [4]: 100%; POLCO pre-emergence efficacy (herbicidal activity) ([6]; Dosage 80 g/ha): 100%; SETVI pre-emergence efficacy (herbicidal activity) ([8]; Dosage 80 g/ha): 100%; ECHCG pre-emergence efficacy (herbicidal activity) ([19]; Dosage 80 g/ha): 100%; ECHCG pre-emergence efficacy (herbicidal activity) ([19]; Dosage 320 g/ha): 100%

From patent US10251395B2, “Substituted furano-/thienocycloalkylamino-2-pyrimidine derivatives and use thereof for controlling undesired plant growth” (Bayer CropScience Aktiengesellschaft, priority 2015, dated 2019)
